These results are taken from patent publication US20080234262A1 (Wyeth, priority 2007, published 2008).

One assay concerns the target PI3K (Homo sapiens, UniProt P42336). Kind of assay: Fluorescence polarization assay for PI3K.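 Further: PI3K kinase reaction on PIP2 with ATP, 30-60 min, product sensed by GST-GRP with red probe in fluorescence polarization (mP), controls without enzyme and at zero time.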 The class given is biochemical. Conditions: PI3Kα; read-out: PI3Kα IC50.
The next assay concerns breast line MDA468. Kind of assay: In vitro cell culture growth assay (MTS), MDA468. The assay is classed as cell-based, human. Conditions: MDA468 cells, three days after drug treatment. Summed up: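 Steps: plate cells; add inhibitors the next day; incubate 3 days; add MTS dye, which viable cells convert metabolically; measure absorbance at 490 nm; calculate percent of control growth relative to vehicle-treated cells in the same plate.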

The next assay deals with prostate line LNCap. Nature of the assay: In vitro cell culture growth assay (MTS), LNCap.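 Further: viable cell density read by absorbance at 490 nm, growth expressed as percent of vehicle-treated cells on the same plate.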 The class given is cell-based, human. Conditions: LNCap cells, three days after drug treatment.

Structures are written as SMILES. pIC50: −log10 of the molar value.

Chain of PI3K (P42336 whole entry): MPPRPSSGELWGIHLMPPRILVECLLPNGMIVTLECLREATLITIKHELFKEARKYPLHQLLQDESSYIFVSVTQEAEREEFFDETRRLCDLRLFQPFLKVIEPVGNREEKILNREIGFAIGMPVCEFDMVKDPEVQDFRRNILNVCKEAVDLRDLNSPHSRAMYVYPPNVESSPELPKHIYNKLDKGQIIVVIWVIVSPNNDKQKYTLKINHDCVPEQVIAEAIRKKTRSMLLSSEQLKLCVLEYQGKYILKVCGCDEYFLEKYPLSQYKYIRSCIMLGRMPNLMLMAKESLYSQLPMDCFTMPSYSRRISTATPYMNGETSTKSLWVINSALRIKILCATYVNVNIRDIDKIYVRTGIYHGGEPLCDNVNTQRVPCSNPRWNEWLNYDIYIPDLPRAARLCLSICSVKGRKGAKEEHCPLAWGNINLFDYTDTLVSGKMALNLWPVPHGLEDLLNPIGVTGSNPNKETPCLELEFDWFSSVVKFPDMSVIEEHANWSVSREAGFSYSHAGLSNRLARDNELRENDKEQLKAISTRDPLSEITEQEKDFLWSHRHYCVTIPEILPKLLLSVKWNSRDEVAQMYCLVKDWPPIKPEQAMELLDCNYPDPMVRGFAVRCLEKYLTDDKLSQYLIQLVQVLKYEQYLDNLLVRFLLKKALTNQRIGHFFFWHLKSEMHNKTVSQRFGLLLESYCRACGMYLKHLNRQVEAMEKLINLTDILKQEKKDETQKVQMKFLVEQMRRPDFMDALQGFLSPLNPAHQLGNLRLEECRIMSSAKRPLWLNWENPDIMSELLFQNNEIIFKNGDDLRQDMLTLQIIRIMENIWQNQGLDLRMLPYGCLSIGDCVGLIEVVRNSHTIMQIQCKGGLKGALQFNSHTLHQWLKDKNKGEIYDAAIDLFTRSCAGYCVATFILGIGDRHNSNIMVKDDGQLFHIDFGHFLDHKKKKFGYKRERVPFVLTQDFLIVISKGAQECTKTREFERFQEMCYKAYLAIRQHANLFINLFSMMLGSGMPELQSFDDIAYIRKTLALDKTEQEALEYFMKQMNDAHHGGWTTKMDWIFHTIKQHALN
Chain of PI3K (P27986 whole entry partner): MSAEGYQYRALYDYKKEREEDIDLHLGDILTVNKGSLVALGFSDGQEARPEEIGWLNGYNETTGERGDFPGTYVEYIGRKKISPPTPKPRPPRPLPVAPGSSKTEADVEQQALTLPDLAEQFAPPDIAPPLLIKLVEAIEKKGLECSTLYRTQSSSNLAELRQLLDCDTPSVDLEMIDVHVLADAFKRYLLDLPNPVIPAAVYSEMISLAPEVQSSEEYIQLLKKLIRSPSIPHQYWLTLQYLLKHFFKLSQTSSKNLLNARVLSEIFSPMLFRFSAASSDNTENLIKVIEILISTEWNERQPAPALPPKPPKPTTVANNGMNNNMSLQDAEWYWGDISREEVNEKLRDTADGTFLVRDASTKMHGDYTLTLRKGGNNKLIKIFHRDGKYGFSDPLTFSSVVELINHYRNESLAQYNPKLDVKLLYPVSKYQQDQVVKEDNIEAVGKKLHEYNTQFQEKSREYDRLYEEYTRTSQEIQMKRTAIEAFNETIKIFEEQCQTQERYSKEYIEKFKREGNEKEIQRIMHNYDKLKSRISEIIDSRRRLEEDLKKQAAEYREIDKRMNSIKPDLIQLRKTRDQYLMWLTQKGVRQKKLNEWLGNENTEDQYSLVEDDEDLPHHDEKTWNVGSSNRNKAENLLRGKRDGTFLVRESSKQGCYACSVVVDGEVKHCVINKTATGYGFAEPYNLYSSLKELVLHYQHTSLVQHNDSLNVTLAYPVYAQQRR

As a reminder, the pIC50 is the negative decadic logarithm of the IC50, by convention in mol/L. As to `COC(=NC#N)Nc1ccc(-c2nc(N3CCOCC3)c3cnn(C4CCN(Cc5cccnc5)CC4)c3n2)cc1` [Example 410, methyl N′-cyano-N-(4-{4-morpholin-4-yl-1-[1-(pyridin-3-ylmethyl)piperidin-4-yl]-1H-pyrazolo[3,4-d]pyrimidin-6-yl}phenyl)imidocarbamate], the pIC50 at PI3K is 6.23; with breast line MDA468 (Homo sapiens, 72 h), 5.89; in the assay with prostate line LNCap (Homo sapiens, LNCaP, 72 h), 5.66.

In the case of `CNC(=O)Nc1ccc(-c2nc(N3CCOCC3)c3cnn(C4CCN(C(=O)c5cnccc5C)CC4)c3n2)cc1` [Compound 663, 1-methyl-3-[4-(1-{1-[(4-methylpyridin-3-yl)carbonyl]piperidin-4-yl}-4-morpholin-4-yl-1H-pyrazolo[3,4-d]pyrimidin-6-yl)phenyl]urea], the negative-log IC50 (pIC50) on PI3K was 6.64; in the assay with breast line MDA468, 6.37; with prostate line LNCap, 6.49.

As to `CN(C)CCCNC(=O)Nc1ccc(-c2nc(N3CCOCC3)c3cnn(C4CCN(Cc5ccccc5)CC4)c3n2)cc1` [Compound 516, 1-{4-[1-(1-benzylpiperidin-4-yl)-4-morpholin-4-yl-1H-pyrazolo[3,4-d]pyrimidin-6-yl]phenyl}-3-[3-(dimethylamino)propyl]urea], the pIC50 at PI3K was 6.80; in the assay with breast line MDA468 (Homo sapiens, 72 h), 5.70; in the assay on prostate line LNCap (Homo sapiens, LNCaP, 72 h) it was 6.19.

For `CCSC(=O)N1CCC(n2ncc3c(N4CCOCC4)nc(-c4ccc(NC(=O)OC)cc4)nc32)CC1` [Compound 807, S-ethyl 4-(6-{4-[(methoxycarbonyl)amino]phenyl}-4-morpholin-4-yl-1H-pyrazolo[3,4-d]pyrimidin-1-yl)piperidine-1-carbothioate], the pIC50 at PI3K was 5.35; in the assay on breast line MDA468 (Homo sapiens, 72 h), 5.10; with prostate line LNCap (Homo sapiens, LNCaP, 72 h) it was 5.85.

Turning to `O=C(NCCO)Nc1ccc(-c2nc(N3CCOCC3)c3cnn(C4CCN(CCCCO)CC4)c3n2)cc1` [Compound 746, 1-(4-{1-[1-(4-hydroxybutyl)piperidin-4-yl]-4-morpholin-4-yl-1H-pyrazolo[3,4-d]pyrimidin-6-yl}phenyl)-3-(2-hydroxyethyl)urea], the pIC50 is 6.43 at PI3K; 4.52 in the assay on breast line MDA468 (Homo sapiens, 72 h); 4.54 with prostate line LNCap (Homo sapiens, LNCaP, 72 h).

`CNC(=O)Nc1ccc(-c2nc(N3CCOCC3)c3cnn(C4CCN(CC(N)=O)CC4)c3n2)cc1` [Compound 576, 2-[4-(6-{4-[(methylcarbamoyl)amino]phenyl}-4-morpholin-4-yl-1H-pyrazolo[3,4-d]pyrimidin-1-yl)piperidin-1-yl]acetamide]: the pIC50 at PI3K is 7.18; in the assay with breast line MDA468 (Homo sapiens, 72 h), 6.00; in the assay on prostate line LNCap (Homo sapiens, LNCaP, 72 h), 6.22.

Regarding `O=C(Nc1ccncc1)Nc1ccc(-c2nc(N3CCOCC3)c3cnn(C4CCN(Cc5cccnc5)CC4)c3n2)cc1` [Example 340, 1-(4-{4-morpholin-4-yl-1-[1-(pyridin-3-ylmethyl)piperidin-4-yl]-1H-pyrazolo[3,4-d]pyrimidin-6-yl}phenyl)-3-pyridin-4-ylurea], the pIC50 at PI3K is 7.89; in the assay with breast line MDA468 (Homo sapiens, 72 h), 7.00; in the assay on prostate line LNCap (Homo sapiens, LNCaP, 72 h) it was 7.55.

Consider `CNC(=O)Nc1ccc(-c2nc(N3CCOCC3)c3cnn(C4CCN(C(=O)c5cccc(Cl)c5)CC4)c3n2)cc1` [Compound 604, 1-(4-{1-[1-(3-chlorobenzoyl)piperidin-4-yl]-4-morpholin-4-yl-1H-pyrazolo[3,4-d]pyrimidin-6-yl}phenyl)-3-methylurea], for which the pIC50 on PI3K is 7.28; with breast line MDA468 (Homo sapiens, 72 h), 7.30; with prostate line LNCap (Homo sapiens, LNCaP, 72 h) it was above 7.57.

Take `O=C(NCCF)Nc1ccc(-c2nc(N3CCOCC3)c3cnn(C4CCN(Cc5cccnc5)CC4)c3n2)cc1F` [Compound 619, 1-(2-fluoroethyl)-3-(2-fluoro-4-{4-morpholin-4-yl-1-[1-(pyridin-3-ylmethyl)piperidin-4-yl]-1H-pyrazolo[3,4-d]pyrimidin-6-yl}phenyl)urea]: the pIC50 at PI3K is 6.21; in the assay with breast line MDA468 (Homo sapiens, 72 h), 5.89; in the assay on prostate line LNCap (Homo sapiens, LNCaP, 72 h), 6.85.
